Measurements as given in the NIST ThermoML archive (doi:10.1007/s10765-014-1598-0).
Numbers after ± are expanded uncertainties.

How the values were obtained:
[1] = wn = mass fraction of the nth substance listed; details: Liquid, Parallel plate method
[2] = Liquid, Parallel plate method

O [water] + O=P(O)(O)O
[1], w2 = 0
Details	thermal conductivity [W/m/K]
292.04 K, 101 kPa	0.596 ± 0.025
292.37 K, 5000 kPa	0.599 ± 0.025
292.41 K, 15000 kPa	0.606 ± 0.025
301.85 K, 101 kPa	0.612 ± 0.026
308.34 K, 101 kPa	0.622 ± 0.026
313.16 K, 5000 kPa	0.634 ± 0.026
313.35 K, 15000 kPa	0.636 ± 0.027
318.33 K, 101 kPa	0.634 ± 0.026
327.48 K, 101 kPa	0.645 ± 0.027
332.62 K, 15000 kPa	0.657 ± 0.027
332.85 K, 5000 kPa	0.656 ± 0.027
337.32 K, 101 kPa	0.655 ± 0.027
346.93 K, 101 kPa	0.662 ± 0.028
351.91 K, 5000 kPa	0.671 ± 0.028
353.17 K, 15000 kPa	0.673 ± 0.028
356.69 K, 101 kPa	0.668 ± 0.028
364.08 K, 5000 kPa	0.679 ± 0.028
364.53 K, 15000 kPa	0.682 ± 0.028
371.79 K, 101 kPa	0.677 ± 0.028
382.36 K, 15000 kPa	0.688 ± 0.029
382.41 K, 5000 kPa	0.686 ± 0.029
398.77 K, 5000 kPa	0.688 ± 0.029
399.64 K, 15000 kPa	0.691 ± 0.029

O=P(O)(O)O [phosphoric acid] + O
[1]
Details	thermal conductivity [W/m/K]
291.42 K, 5000 kPa, w1 = 0.08	0.568 ± 0.024
291.7 K, 15000 kPa, w1 = 0.08	0.578 ± 0.024
292.71 K, 101 kPa, w1 = 0.5	0.482 ± 0.02
293.15 K, 15000 kPa, w1 = 0.5	0.498 ± 0.021
293.16 K, 101 kPa, w1 = 0.08	0.566 ± 0.024
293.26 K, 5000 kPa, w1 = 0.5	0.489 ± 0.02
294.15 K, 5000 kPa, w1 = 0.155	0.545 ± 0.023
294.23 K, 15000 kPa, w1 = 0.155	0.556 ± 0.023
294.32 K, 101 kPa, w1 = 0.155	0.529 ± 0.022
298.48 K, 101 kPa, w1 = 0.08	0.575 ± 0.024
300.86 K, 101 kPa, w1 = 0.5	0.493 ± 0.021
303.03 K, 101 kPa, w1 = 0.155	0.545 ± 0.023
310.72 K, 5000 kPa, w1 = 0.155	0.568 ± 0.024
310.89 K, 15000 kPa, w1 = 0.155	0.58 ± 0.024
312.81 K, 15000 kPa, w1 = 0.5	0.525 ± 0.022
313.19 K, 5000 kPa, w1 = 0.5	0.516 ± 0.022
313.91 K, 101 kPa, w1 = 0.08	0.597 ± 0.025
313.94 K, 101 kPa, w1 = 0.155	0.561 ± 0.023
314.07 K, 101 kPa, w1 = 0.155	0.563 ± 0.024
315.13 K, 101 kPa, w1 = 0.5	0.514 ± 0.021
315.16 K, 5000 kPa, w1 = 0.08	0.609 ± 0.025
315.18 K, 15000 kPa, w1 = 0.08	0.613 ± 0.026
320.54 K, 101 kPa, w1 = 0.08	0.607 ± 0.025
321.54 K, 101 kPa, w1 = 0.155	0.571 ± 0.024
329.59 K, 101 kPa, w1 = 0.5	0.53 ± 0.022
330.24 K, 15000 kPa, w1 = 0.5	0.545 ± 0.023
330.25 K, 101 kPa, w1 = 0.155	0.582 ± 0.024
330.43 K, 5000 kPa, w1 = 0.5	0.54 ± 0.023
332.5 K, 15000 kPa, w1 = 0.155	0.605 ± 0.025
332.65 K, 5000 kPa, w1 = 0.155	0.592 ± 0.025
334.07 K, 5000 kPa, w1 = 0.08	0.633 ± 0.026
334.29 K, 15000 kPa, w1 = 0.08	0.641 ± 0.027
339.46 K, 101 kPa, w1 = 0.5	0.538 ± 0.022
342.35 K, 101 kPa, w1 = 0.155	0.598 ± 0.025
342.83 K, 101 kPa, w1 = 0.08	0.63 ± 0.026
343.21 K, 101 kPa, w1 = 0.155	0.599 ± 0.025
345.9 K, 101 kPa, w1 = 0.08	0.634 ± 0.026
350.37 K, 15000 kPa, w1 = 0.08	0.654 ± 0.027
350.49 K, 5000 kPa, w1 = 0.08	0.646 ± 0.027
352.63 K, 15000 kPa, w1 = 0.5	0.566 ± 0.024
352.82 K, 5000 kPa, w1 = 0.5	0.569 ± 0.024
352.88 K, 101 kPa, w1 = 0.155	0.607 ± 0.025
353.04 K, 5000 kPa, w1 = 0.155	0.615 ± 0.026
353.17 K, 15000 kPa, w1 = 0.155	0.622 ± 0.026
354.94 K, 101 kPa, w1 = 0.5	0.55 ± 0.023
355.76 K, 101 kPa, w1 = 0.08	0.642 ± 0.027
360.16 K, 101 kPa, w1 = 0.155	0.613 ± 0.026
360.21 K, 101 kPa, w1 = 0.155	0.614 ± 0.026
363.17 K, 5000 kPa, w1 = 0.5	0.564 ± 0.024
363.2 K, 15000 kPa, w1 = 0.5	0.572 ± 0.024
364.06 K, 15000 kPa, w1 = 0.155	0.632 ± 0.026
364.17 K, 5000 kPa, w1 = 0.155	0.626 ± 0.026
364.98 K, 15000 kPa, w1 = 0.08	0.666 ± 0.028
365.14 K, 5000 kPa, w1 = 0.08	0.667 ± 0.028
369.33 K, 101 kPa, w1 = 0.08	0.65 ± 0.027
370.07 K, 101 kPa, w1 = 0.155	0.618 ± 0.026
372.13 K, 101 kPa, w1 = 0.5	0.56 ± 0.023
380.77 K, 15000 kPa, w1 = 0.08	0.673 ± 0.028
380.93 K, 5000 kPa, w1 = 0.08	0.669 ± 0.028
383.41 K, 15000 kPa, w1 = 0.5	0.58 ± 0.024
383.52 K, 5000 kPa, w1 = 0.5	0.575 ± 0.024
385.14 K, 15000 kPa, w1 = 0.155	0.64 ± 0.027
385.31 K, 5000 kPa, w1 = 0.155	0.636 ± 0.027
397.89 K, 5000 kPa, w1 = 0.155	0.635 ± 0.026
399.66 K, 15000 kPa, w1 = 0.5	0.583 ± 0.024
399.84 K, 15000 kPa, w1 = 0.08	0.677 ± 0.028
400.05 K, 5000 kPa, w1 = 0.08	0.672 ± 0.028
400.07 K, 15000 kPa, w1 = 0.155	0.642 ± 0.027
400.18 K, 5000 kPa, w1 = 0.5	0.58 ± 0.024

O [water]
[2]
Details	thermal conductivity [W/m/K]
292.04 K, 101 kPa	0.596 ± 0.025
292.37 K, 5000 kPa	0.599 ± 0.025
292.41 K, 15000 kPa	0.606 ± 0.025
301.85 K, 101 kPa	0.612 ± 0.026
308.34 K, 101 kPa	0.622 ± 0.026
313.16 K, 5000 kPa	0.634 ± 0.026
313.35 K, 15000 kPa	0.636 ± 0.027
318.33 K, 101 kPa	0.634 ± 0.026
327.48 K, 101 kPa	0.645 ± 0.027
332.62 K, 15000 kPa	0.657 ± 0.027
332.85 K, 5000 kPa	0.656 ± 0.027
337.32 K, 101 kPa	0.655 ± 0.027
346.93 K, 101 kPa	0.662 ± 0.028
351.91 K, 5000 kPa	0.671 ± 0.028
353.17 K, 15000 kPa	0.673 ± 0.028
356.69 K, 101 kPa	0.668 ± 0.028
364.08 K, 5000 kPa	0.679 ± 0.028
364.53 K, 15000 kPa	0.682 ± 0.028
371.79 K, 101 kPa	0.677 ± 0.028
382.36 K, 15000 kPa	0.688 ± 0.029
382.41 K, 5000 kPa	0.686 ± 0.029
398.77 K, 5000 kPa	0.688 ± 0.029
399.64 K, 15000 kPa	0.691 ± 0.029
